The results in this text go back to patent publication US9943504B2, “Arginine methyltransferase inhibitors and uses thereof” (Epizyme, Inc., priority 2013, dated 2018).

pIC50: −log10 of the molar value.

For the assay, the target named is T1, human PRMT8 (Homo sapiens, UniProt Q9NR22).
T1 construct: Full-length human PRMT8 (NM_019854.4) isoform 1 transcript clone; made in house; host or cells: E. coli BL21(DE3) Gold
Description: PRMT8 Biochemical Assay. The settings on record: biochemical evaluation, peptide substrate. An excerpt:
S-adenosylmethionine (SAM), S-adenosylhomocysteine (SAH), bicine, Tween20, dimethylsulfoxide (DMSO), bovine skin gelatin (BSG), isopropyl-β-D-thiogalactopyranoside (IPTG), and Tris(2-carboxyethyl)phosphine hydrochloride solution (TCEP) were purchased from Sigma-Aldrich at the highest level of purity possible. ^3H-SAM was purchase from American Radiolabeled Chemicals with a specific activity of 80 Ci/mmol. 384-well streptavidin Flashplates were purchased from PerkinElmer.
Peptide representative of human histone H4 residues 31-45 was synthesized with an N-terminal linker-affinity tag motif and a C-terminal amide cap by 21st Century Biochemicals. The peptide was purified by high-performance liquid chromatography (HPLC) to greater than 95% purity and confirmed by liquid chromatography mass spectrometry (LC-MS). The sequence was Biot-Ahx-[…]-amide (SEQ ID NO.: 8).
The resulting construct encodes an N-terminal GST tag and a thrombin cleavage sequence ([…] […]
The assays were all performed in a buffer consisting of 20 mM Bicine (pH=7.6), 1 mM TCEP, 0.005% BSG, and 0.002% Tween 20, prepared on the day of use. […] The plates were then read in a PerkinElmer TopCount plate reader to measure the quantity of ^3H-labeled peptide bound to the Flashplate surface, measured as disintegrations per minute (dpm) or alternatively, referred to as counts per minute (cpm). […]

T1 sequence (Q9NR22 whole entry, canonical isoform): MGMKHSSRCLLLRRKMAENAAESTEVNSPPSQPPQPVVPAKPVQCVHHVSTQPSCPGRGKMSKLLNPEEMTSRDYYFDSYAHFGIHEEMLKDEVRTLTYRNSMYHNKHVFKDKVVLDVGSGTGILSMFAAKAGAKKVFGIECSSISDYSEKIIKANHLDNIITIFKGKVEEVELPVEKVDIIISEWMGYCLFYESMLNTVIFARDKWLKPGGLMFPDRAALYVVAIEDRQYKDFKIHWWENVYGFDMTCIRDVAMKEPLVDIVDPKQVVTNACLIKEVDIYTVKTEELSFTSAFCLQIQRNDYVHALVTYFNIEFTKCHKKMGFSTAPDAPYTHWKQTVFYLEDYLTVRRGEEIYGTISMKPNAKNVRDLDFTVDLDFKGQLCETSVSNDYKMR

For `CN(CCN)Cc1n[nH]c2cccc(OCc3ccccc3)c12` [Compound 1], the pIC50 (as a rule, the negative decadic logarithm of the IC50, by convention in mol/L) is 6.00 to 7.00.
